Measured values taken from patent US11242361B2 (Proteostasis Therapeutics, Inc., priority 2013, dated 2022).
pIC50: −log10 of the molar value.

Biological target: USP14 (Homo sapiens (Human), UniProt P54578)
Assay: USP14 Inhibition Assay
Format: biochemical
Conditions: average value from a minimum of two experimental determinations, read-out: IC50 Category
Protocol: Example 17: USP14 Inhibition Assay
“I” in the Table below designates an IC50 of >5 μM, “II” in the Table below designates and IC50 between 0.5 and 5 μM, and “III” designates an IC50<0.5 μM. The IC50 values in the Table below represent the average value from a minimum of two experimental determinations.

USP14, sequence (P54578 whole entry, looked up): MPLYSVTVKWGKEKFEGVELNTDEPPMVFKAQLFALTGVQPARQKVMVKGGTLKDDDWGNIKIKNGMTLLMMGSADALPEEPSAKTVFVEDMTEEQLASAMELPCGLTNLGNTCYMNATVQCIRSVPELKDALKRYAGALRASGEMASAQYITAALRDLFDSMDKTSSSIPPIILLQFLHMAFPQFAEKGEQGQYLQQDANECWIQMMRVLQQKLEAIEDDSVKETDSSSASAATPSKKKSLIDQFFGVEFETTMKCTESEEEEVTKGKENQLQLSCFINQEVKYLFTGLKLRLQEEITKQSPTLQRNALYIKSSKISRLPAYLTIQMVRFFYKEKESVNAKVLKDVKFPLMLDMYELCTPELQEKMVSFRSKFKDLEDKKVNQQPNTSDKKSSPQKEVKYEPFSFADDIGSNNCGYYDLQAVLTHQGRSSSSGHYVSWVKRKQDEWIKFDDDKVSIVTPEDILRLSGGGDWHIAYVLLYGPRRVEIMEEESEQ

Compared with Cc1c(C(=O)CN2CC=CC2)c2ncc(Br)cc2n1-c1ccc(C#N)cc1 [Compound 315], Cc1c(C(=O)CN2CCC2)c2ncc(Br)cc2n1-c1ccc(C#N)cc1 [Compound 325] is lower in pIC50: over 6.30 for the first, under 5.30 for the second. The first is the more potent here.

Going from Cc1c(C(=O)CN2CCCCC2(C)C)c2ncc(Br)cc2n1-c1ccc(C#N)cc1 [Compound 318] to Cc1c(C(=O)CN2CCCCO2)c2ncc(Br)cc2n1-c1ccc(C#N)cc1 [Compound 345], the pIC50 falls from over 6.30 to under 5.30.

Cc1c(C(=O)CN2CCCCC2)c2ncc(C#CCOC(=O)N(C)C)cc2n1-c1ccc(C#N)cc1 [Compound 319, 3-(1-(4-Cyanophenyl)-2-methyl-3-(2-(piperidin-1-yl)acetyl)-1H-pyrrolo[3,2-b]pyridin-6-yl)prop-2-yn-1-yl Dimethylcarbamate] and COc1cnc2c(C(=O)CN3CCCCC3)c(C)n(-c3ccc(C#N)cc3)c2c1 [Compound 326, 4-(6-Methoxy-2-methyl-3-(2-(piperidin-1-yl)acetyl)-1H-pyrrolo[3,2-b]pyridin-1-yl)benzonitrile] cannot be ordered by pIC50: over 6.30 for the first, over 6.30 for the second.

Going from [2H]C1([2H])N(CC(=O)c2c(C)n(-c3ccc(C#N)cc3)c3cc(Br)cnc23)C([2H])([2H])C([2H])([2H])C([2H])([2H])C1([2H])[2H] [Compound 320] to Cc1c(C(=O)CN2CC3(CCC3)C2)c2ncc(Br)cc2n1-c1ccc(C#N)cc1 [Compound 359], the pIC50 falls from over 6.30 to under 5.30. The first is the more potent here.

Cc1c(C(=O)CN2CCC(O)CC2)c2ncc(/C=C/c3nnc(C(F)(F)F)o3)cc2n1-c1ccc(C#N)cc1 [Compound 321] and Cc1c(C(=O)CN2CCC(O)CC2)c2ncc(Br)cc2n1-c1ccc(C#N)cc1 [Compound 353] cannot be ordered by pIC50: over 6.30 for the first, over 6.30 for the second.

Cc1c(C(=O)CN2CCC(F)(F)C2)c2ncc(Br)cc2n1-c1ccc(C#N)cc1 [Compound 324] and Cc1c(C(=O)CN2CC3(COC3)C2)c2ncc(Br)cc2n1-c1ccc(C#N)cc1 [Compound 343] cannot be ordered by pIC50: under 5.30 for the first, under 5.30 for the second.

Cc1c(C(=O)CN2CCS(=O)(=O)CC2)c2ncc(Br)cc2n1-c1ccc(C#N)cc1 [Compound 327] and Cc1c(C(=O)CN2CCN(C)CC2)c2ncc(Br)cc2n1-c1ccc(C#N)cc1 [Compound 330] cannot be ordered by pIC50: under 5.30 for the first, under 5.30 for the second.

First: Cc1c(C(=O)CN2CC[C@H](O)[C@@H](O)C2)c2ncc(Br)cc2n1-c1ccc(C#N)cc1 [Compound 328]
Second: Cc1c(C(=O)CN2CC[C@H](O)[C@H](O)C2)c2ncc(Br)cc2n1-c1ccc(C#N)cc1 [Compound 332]
The pIC50 of the first is lower: under 5.30 for the first, over 6.30 for the second. The second is the more potent here.

First: Cc1c(C(=O)CN2CCOCC2)c2ncc(Br)cc2n1-c1ccc(C#N)cc1 [Compound 329]
Second: Cc1c(C(=O)CN2CCSCC2)c2ncc(Br)cc2n1-c1ccc(C#N)cc1 [Compound 331]
The pIC50 of the first is lower: under 5.30 for the first, over 6.30 for the second.

Cc1c(C(=O)CN2CCC(O)CC2)c2ncccc2n1-c1ccc(C#N)cc1 [Compound 335] and Cc1c(C(=O)CN2CCC(O)CC2)c2ccccc2n1-c1ccc(C#N)cc1 [Compound 337] cannot be ordered by pIC50: over 6.30 for the first, over 6.30 for the second.

CC(C)c1c(C(=O)CN2CCCCC2)c2ncccc2n1-c1ccc(C#N)cc1 [Compound 336] and N#Cc1ccc(-n2c(C(F)(F)F)c(C(=O)CN3CCCCC3)c3ncccc32)cc1 [Compound 372] cannot be ordered by pIC50: under 5.30 for the first, under 5.30 for the second.

Cc1c(C(=O)CN2C[C@H](C)C[C@H](C)C2)c2ncc(Br)cc2n1-c1ccc(C#N)cc1 [Compound 338] and Cc1c(C(=O)CN2C[C@H](C)C[C@@H](C)C2)c2ncc(Br)cc2n1-c1ccc(C#N)cc1 [Compound 348] cannot be ordered by pIC50: under 5.30 for the first, under 5.30 for the second.

COc1cnc2c(C(=O)CN3CCC(O)CC3)c(C)n(-c3ccc(C#N)cc3)c2c1 [Compound 339] and CCOc1cnc2c(C(=O)CN3CCC(O)CC3)c(C)n(-c3ccc(C#N)cc3)c2c1 [Compound 340] cannot be ordered by pIC50: over 6.30 for the first, over 6.30 for the second.

COCCOc1cnc2c(C(=O)CN3CCC(O)CC3)c(C)n(-c3ccc(C#N)cc3)c2c1 [Compound 341] and CCCOc1cnc2c(C(=O)CN3CCC(O)CC3)c(C)n(-c3ccc(C#N)cc3)c2c1 [Compound 347] cannot be ordered by pIC50: over 6.30 for the first, over 6.30 for the second.

Cc1c(C(=O)CN2CCC(O)CC2)c2ncc(CCNS(C)(=O)=O)cc2n1-c1ccc(Cl)cc1 [Compound 342, N-(2-(1-(4-Chlorophenyl)-3-(2-(4-hydroxypiperidin-1-yl)acetyl)-2-methyl-1H-pyrrolo[3,2-b]pyridin-6-yl)ethyl)methanesulfonamide] and Cc1c(C(=O)CN2CCC(O)CC2)c2ncc(CCS(N)(=O)=O)cc2n1-c1ccc(Cl)cc1 [Compound 357, 2-(1-(4-Chlorophenyl)-3-(2-(4-hydroxypiperidin-1-yl)acetyl)-2-methyl-1H-pyrrolo[3,2-b]pyridin-6-yl)ethane-1-sulfonamide] cannot be ordered by pIC50: over 6.30 for the first, over 6.30 for the second.

First: Cc1c(C(=O)CN2CCNC(=O)C2)c2ncc(Br)cc2n1-c1ccc(C#N)cc1 [Compound 344]
Second: Cc1c(C(=O)CN2CCC(N)CC2)c2ncc(Br)cc2n1-c1ccc(C#N)cc1 [Compound 367]
The pIC50 of the first is lower: under 5.30 for the first, 5.30 to 6.30 for the second.

Cc1c(C(=O)CN2CCCCC2)c2ncc(CCN3CCCC3)cc2n1-c1ccc(Cl)cc1 [Compound 346, 1-(1-(4-Chlorophenyl)-2-methyl-6-(2-(pyrrolidin-1-yl)ethyl)-1H-pyrrolo[3,2-b]pyridin-3-yl)-2-(piperidin-1-yl)ethan-1-one] and Cc1c(C(=O)CN2CCCCC2)c2ncc(CN3CCCC3)cc2n1-c1ccc(C#N)cc1 [Compound 360, 4-(2-Methyl-3-(2-(piperidin-1-yl)acetyl)-6-(pyrrolidin-1-ylmethyl)-1H-pyrrolo[3,2-b]pyridin-1-yl)benzonitrile] cannot be ordered by pIC50: over 6.30 for the first, over 6.30 for the second.

Compared with Cc1c(C(=O)CN2C[C@@H](C)C[C@H](C)C2)c2ncc(Br)cc2n1-c1ccc(C#N)cc1 [Compound 349], Cc1c(C(=O)CN2[C@H](C)CCC[C@H]2C)c2ncc(Br)cc2n1-c1ccc(C#N)cc1 [Compound 373] is lower in pIC50: over 6.30 for the first, 5.30 to 6.30 for the second. The first is the more potent here.

CCOC(=O)C[C@@H](C)c1cnc2c(C(=O)CN3CCCCC3)c(C)n(-c3ccc(C#N)cc3)c2c1 [Compound 350, Ethyl (R)-3-(1-(4-Cyanophenyl)-2-methyl-3-(2-(piperidin-1-yl)acetyl)-1H-pyrrolo[3,2-b]pyridin-6-yl)butanoate] and CCOC(=O)C[C@H](C)c1cnc2c(C(=O)CN3CCCCC3)c(C)n(-c3ccc(C#N)cc3)c2c1 [Compound 351, Ethyl (S)-3-(1-(4-Cyanophenyl)-2-methyl-3-(2-(piperidin-1-yl)acetyl)-1H-pyrrolo[3,2-b]pyridin-6-yl)butanoate] cannot be ordered by pIC50: over 6.30 for the first, over 6.30 for the second.

Cc1c(C(=O)CN2CCC(CN(C)C)CC2)c2ncc(Br)cc2n1-c1ccc(C#N)cc1 [Compound 352] and COc1cnc2c(C(=O)CN3CCC(CN(C)C)CC3)c(C)n(-c3ccc(C#N)cc3)c2c1 [Compound 370] cannot be ordered by pIC50: over 6.30 for the first, over 6.30 for the second.

Cc1c(C(=O)CN2CCC(CN)CC2)c2ncc(Br)cc2n1-c1ccc(C#N)cc1 [Compound 354] and COc1cnc2c(C(=O)CN3CCC(CN)CC3)c(C)n(-c3ccc(C#N)cc3)c2c1 [Compound 369] cannot be ordered by pIC50: over 6.30 for the first, over 6.30 for the second.

Cc1c(C(=O)CN2CC[C@@H](O)[C@@H](O)C2)c2ncc(Br)cc2n1-c1ccc(C#N)cc1 [Compound 355] and Cc1c(C(=O)CN2CC[C@H](O)[C@H](O)C2)c2ncc(Br)cc2n1-c1ccc(C#N)cc1 [Compound 356] cannot be ordered by pIC50: over 6.30 for the first, over 6.30 for the second.

C#CCCCNC(=O)CCc1cnc2c(C(=O)CN3CCC(O)CC3)c(C)n(-c3ccc(C#N)cc3)c2c1 [Compound 361] and Cc1c(C(=O)CN2CCC(O)CC2)c2ncc(CCC(=O)NCCCC#N)cc2n1-c1ccc(C#N)cc1 [Compound 362] cannot be ordered by pIC50: over 6.30 for the first, over 6.30 for the second.

COCCOc1cnc2c(C(=O)CN3CCC(OC)CC3)c(C)n(-c3ccc(Cl)cc3)c2c1 [Compound 363] and COCCOc1cnc2c(C(=O)CN3CCCCC3)c(C)n(-c3ccc(Cl)cc3)c2c1 [Compound 364] cannot be ordered by pIC50: over 6.30 for the first, over 6.30 for the second.

CCOC(=O)CC1CCN(CC(=O)c2c(C)n(-c3ccc(C#N)cc3)c3cc(Br)cnc23)CC1 [Compound 365] and CCOC(=O)CNCC1CCN(CC(=O)c2c(C)n(-c3ccc(C#N)cc3)c3cc(Br)cnc23)CC1 [Compound 368] fall in the same range of pIC50: 5.30 to 6.30 for the first, 5.30 to 6.30 for the second.

First: CCOC(=O)CC1CCCN(CC(=O)c2c(C)n(-c3ccc(C#N)cc3)c3cc(Br)cnc23)C1 (stereo not drawn) [Compound 366]
Second: CCOC(=O)Cc1cnc2c(C(=O)CN3CCCCC3)c(C)n(-c3ccc(C#N)cc3)c2c1 [Compound 384, Ethyl 2-(1-(4-Cyanophenyl)-2-methyl-3-(2-(piperidin-1-yl)acetyl)-1H-pyrrolo[3,2-b]pyridin-6-yl)acetate]
The pIC50 of the first is lower: 5.30 to 6.30 for the first, over 6.30 for the second.

Cc1c(C(=O)CN2CCC(CC(=O)O)CC2)c2ncc(Br)cc2n1-c1ccc(Cl)cc1 [Compound 371] and Cc1c(C(=O)CN2CCC(CNCC(=O)O)CC2)c2ncc(Br)cc2n1-c1ccc(Cl)cc1 [Compound 386] cannot be ordered by pIC50: under 5.30 for the first, under 5.30 for the second.

First: Cc1c(C(=O)CN2[C@@H](C)CCC[C@@H]2C)c2ncc(Br)cc2n1-c1ccc(C#N)cc1 [Compound 374]
Second: Cc1c(C(=O)CN2CCCCC2)c2ncc(Cl)cc2n1-c1ccc(C#N)cc1 [Compound 385]
The pIC50 of the first is lower: 5.30 to 6.30 for the first, over 6.30 for the second.

Cc1c(C(=O)CN2CCCCC2)c2ncc(CC(=O)NC3CC3)cc2n1-c1ccc(C#N)cc1 [Compound 381, 2-(1-(4-Cyanophenyl)-2-methyl-3-(2-(piperidin-1-yl)acetyl)-1H-pyrrolo[3,2-b]pyridin-6-yl)-N-cyclopropylacetamide] and CCNC(=O)Cc1cnc2c(C(=O)CN3CCCCC3)c(C)n(-c3ccc(C#N)cc3)c2c1 [Compound 383, 2-(1-(4-Cyanophenyl)-2-methyl-3-(2-(piperidin-1-yl)acetyl)-1H-pyrrolo[3,2-b]pyridin-6-yl)-N-ethylacetamide] cannot be ordered by pIC50: over 6.30 for the first, over 6.30 for the second.

CCN(C)C(=O)Cc1cnc2c(C(=O)CN3CCCCC3)c(C)n(-c3ccc(C#N)cc3)c2c1 [Compound 382, 2-(1-(4-Cyanophenyl)-2-methyl-3-(2-(piperidin-1-yl)acetyl)-1H-pyrrolo[3,2-b]pyridin-6-yl)-N-ethyl-N-methylacetamide] and CCCC(=O)CCc1cnc2c(C(=O)CN3CCCCC3)c(C)n(-c3ccc(Cl)cc3)c2c1 [Compound 387] cannot be ordered by pIC50: over 6.30 for the first, over 6.30 for the second.
